Experimental data taken from PubChem BioAssay AID248 (DTP/NCI, 2004).
Inconclusive results and toxic doses are left out.

Test system: L1210 leukemia ip in BDF1 mice, survival T/C
Assay: NCI In Vivo Anticancer Drug Screen. Data for tumor model L1210 Leukemia (intraperitoneal) in B6D2F1 (BDF1) mice
Details: endpoint: mean survival time, higher = longer survival
How it was run: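 Tumor cells were implanted, animals were treated, and survival was followed. The result divides the treated measurement by the vehicle-control measurement.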

[1] = dose: 100.0 mg/kg/injection, schedule: Q04DX002 (ip), vehicle: Klucel (hydroxypropylcellulose) (HPC)
[2] = dose: 200.0 mg/kg/injection, schedule: Q04DX002 (ip), vehicle: Klucel (hydroxypropylcellulose) (HPC)
[3] = dose: 400.0 mg/kg/injection, schedule: Q04DX002 (ip), vehicle: Klucel (hydroxypropylcellulose) (HPC)
[4] = dose: 100.0 mg/kg/injection, schedule: Q01DX009 (ip), vehicle: saline with Tween-80
[5] = dose: 200.0 mg/kg/injection, schedule: Q01DX009 (ip), vehicle: saline with Tween-80
[6] = dose: 400.0 mg/kg/injection, schedule: Q01DX009 (ip), vehicle: saline with Tween-80
[7] = dose: 50.0 mg/kg/injection, schedule: Q01DX009 (ip), vehicle: Klucel (hydroxypropylcellulose) (HPC)
[8] = dose: 100.0 mg/kg/injection, schedule: Q01DX009 (ip), vehicle: Klucel (hydroxypropylcellulose) (HPC)
[9] = dose: 200.0 mg/kg/injection, schedule: Q01DX009 (ip), vehicle: Klucel (hydroxypropylcellulose) (HPC)
[10] = dose: 120.0 mg/kg/injection, schedule: Q01DX Z (ip), vehicle: saline
[11] = dose: 100.0 mg/kg/injection, schedule: Q01DX001 (ip), vehicle: carboxymethylcellulose (CMC)
[12] = dose: 200.0 mg/kg/injection, schedule: Q01DX001 (ip), vehicle: carboxymethylcellulose (CMC)
[13] = dose: 100.0 mg/kg/injection, schedule: Q04DX003 (ip), vehicle: saline
[14] = dose: 200.0 mg/kg/injection, schedule: Q04DX003 (ip), vehicle: saline
[15] = dose: 400.0 mg/kg/injection, schedule: Q04DX003 (ip), vehicle: saline

For O=C(NCCCCCCNC(=O)N(O)C12CC3CC(CC(C3)C1)C2)N(O)C12CC3CC(CC(C3)C1)C2, the T/C (dose: 100.0 mg/kg/injection, schedule: Q01DX001 (ip), vehicle: Klucel (hydroxypropylcellulose) (HPC)) was 95 % of control, the T/C (dose: 200.0 mg/kg/injection, schedule: Q01DX001 (ip), vehicle: Klucel (hydroxypropylcellulose) (HPC)) was 90 % of control and the T/C (dose: 400.0 mg/kg/injection, schedule: Q01DX001 (ip), vehicle: Klucel (hydroxypropylcellulose) (HPC)) was 90 % of control.

In the case of O=C1c2ccccc2C(=O)N1C1CCCCCCC1, the T/C [1] is reported as 94 % of control, the T/C [2] is reported as 100 % of control and the T/C [3] is reported as 97 % of control.

For CCC1CCC(NC(=O)c2ccccc2)CC1 (configuration not stated), the T/C [4] was 92 % of control, the T/C [5] was 94 % of control and the T/C [6] was 92 % of control.

In the case of CCOC(=O)/C=C\SCC(=O)OCC, the T/C (dose: 100.0 mg/kg/injection, schedule: Q04DX002 (ip), vehicle: saline) is reported as 104 % of control, the T/C (dose: 200.0 mg/kg/injection, schedule: Q04DX002 (ip), vehicle: saline) is reported as 104 % of control and the T/C (dose: 400.0 mg/kg/injection, schedule: Q04DX002 (ip), vehicle: saline) is reported as 93 % of control.

With c1ccc([As]2c3ccccc3Nc3ccccc32)cc1 the T/C (dose: 100.0 mg/kg/injection, schedule: Q04DX002 (ip), vehicle: saline with Tween-80) was 89 % of control, the T/C (dose: 200.0 mg/kg/injection, schedule: Q04DX002 (ip), vehicle: saline with Tween-80) was 86 % of control and the T/C (dose: 400.0 mg/kg/injection, schedule: Q04DX002 (ip), vehicle: saline with Tween-80) was 86 % of control.

COc1ccc(C(C#N)N2CCOCC2)cc1 (configuration not stated) was tested, and the T/C [7] was 92 % of control, the T/C [8] was 93 % of control and the T/C (dose: 100.0 mg/kg/injection, schedule: Q04DX003 (ip), vehicle: Klucel (hydroxypropylcellulose) (HPC)) was 96 % of control. For the same compound, the T/C [9] was 96 % of control and the T/C (dose: 200.0 mg/kg/injection, schedule: Q04DX003 (ip), vehicle: Klucel (hydroxypropylcellulose) (HPC)) was 91 % of control.

CCCCCCCCC1NC1CCCCCCCCO (configuration not stated) was tested, and the T/C [1] was 103 % of control, the T/C [2] was 103 % of control and the T/C [3] was 100 % of control.

In the case of N/N=C/NN=C(N)N, the T/C (dose: 15.0 mg/kg/injection, schedule: Q01DX Z (ip), vehicle: saline) is reported as 97 % of control, the T/C (dose: 30.0 mg/kg/injection, schedule: Q01DX Z (ip), vehicle: saline) is reported as 107 % of control and the T/C (dose: 60.0 mg/kg/injection, schedule: Q01DX Z (ip), vehicle: saline) is reported as 100 % of control. For the same compound, the T/C [10] was 100 % of control and the T/C (dose: 120.0 mg/kg/injection, schedule: Q01DX Z (oral), vehicle: saline) was 114 % of control.

CC(C)=CCC/C(C)=C\C=N\O was tested, and the T/C [11] was 101 % of control, the T/C [12] was 95 % of control and the T/C (dose: 400.0 mg/kg/injection, schedule: Q01DX001 (ip), vehicle: carboxymethylcellulose (CMC)) was 98 % of control.

In the case of O=P(c1cccc(C(F)(F)F)c1)(c1cccc(C(F)(F)F)c1)c1cccc(C(F)(F)F)c1.O=P(c1cccc(C(F)(F)F)c1)(c1cccc(C(F)(F)F)c1)c1cccc(C(F)(F)F)c1.[Cl][Sn]([Cl])([Cl])[Cl], the T/C [1] is reported as 100 % of control, the T/C [2] is reported as 96 % of control and the T/C [3] is reported as 86 % of control.

C1CCC(=[N+]2CCCC2)CC1 was tested, and the T/C (dose: 100.0 mg/kg/injection, schedule: Q01DX009 (ip), vehicle: saline) was 93 % of control, the T/C [13] was 106 % of control and the T/C (dose: 200.0 mg/kg/injection, schedule: Q01DX009 (ip), vehicle: saline) was 101 % of control. The T/C [14] was 104 % of control, the T/C (dose: 400.0 mg/kg/injection, schedule: Q01DX009 (ip), vehicle: saline) was 88 % of control and the T/C [15] was 102 % of control.

For CCC(=O)Nc1ccccc1Cl, the T/C [4] was 97 % of control, the T/C [5] was 98 % of control and the T/C [6] was 101 % of control.

With c1ccc2c(c1)CCC1NC21 (configuration not stated) the T/C [11] was 103 % of control and the T/C [12] was 105 % of control.

With CCOC(=O)C1C(C)NC(=S)NC1c1ccccc1 (configuration not stated) the T/C [1] was 90 % of control, the T/C [2] was 93 % of control and the T/C [3] was 93 % of control.

With CCOC(=O)C(Cc1cc(C(C)(C)C)c(O)c(C(C)(C)C)c1)(NC=O)C(=O)OCC the T/C [7] was 103 % of control, the T/C [8] was 100 % of control and the T/C [9] was 96 % of control.

For O=C(Nc1ccc(Cl)c(Cl)c1)OCc1cc[n+]([O-])cc1, the T/C [1] was 103 % of control, the T/C [2] was 98 % of control and the T/C [3] was 106 % of control.

CC(=O)Nc1ccc(C(=O)N=C(C2CCCC2)N2CCCC2)cc1 was tested, and the T/C (dose: 100.0 mg/kg/injection, schedule: Q01DX001 (ip), vehicle: saline) was 96 % of control, the T/C (dose: 200.0 mg/kg/injection, schedule: Q01DX001 (ip), vehicle: saline) was 100 % of control and the T/C (dose: 400.0 mg/kg/injection, schedule: Q01DX001 (ip), vehicle: saline) was 105 % of control.

For C[C@H](CCC(=O)O)[C@H]1CC[C@H]2[C@@H]3[C@H](O)C[C@@H]4C[C@H](O)CC[C@]4(C)[C@H]3C[C@H](O)[C@]12C (tested in a mixture with another compound), the T/C (dose: 37.5 mg/kg/injection, schedule: Q01DX009 (ip), vehicle: saline) was 107 % of control, the T/C (dose: 50.0 mg/kg/injection, schedule: Q04DX003 (ip), vehicle: other) was 105 % of control and the T/C (dose: 75.0 mg/kg/injection, schedule: Q01DX009 (ip), vehicle: saline) was 111 % of control. For the same compound, the T/C (dose: 77.0 mg/kg/injection, schedule: Q01DX Z (ip), vehicle: methylcellulose (MC)) was 105 % of control, the T/C (dose: 80.0 mg/kg/injection, schedule: Q01DX009 (ip), vehicle: other) was 97 % of control and the T/C (dose: 80.0 mg/kg/injection, schedule: Q01DX009 (ip), vehicle: saline) was 115 % of control. For the same compound, the T/C (dose: 80.0 mg/kg/injection, schedule: Q01DX Z (ip), vehicle: saline) was 111 % of control, the T/C (dose: 100.0 mg/kg/injection, schedule: Q01DX001 (ip), vehicle: alcohol) was 96 % of control and the T/C (dose: 100.0 mg/kg/injection, schedule: Q04DX003 (ip), vehicle: other) was 97 % of control. The T/C (dose: 116.0 mg/kg/injection, schedule: Q01DX Z (ip), vehicle: methylcellulose (MC)) was 115 % of control, the T/C (dose: 120.0 mg/kg/injection, schedule: Q01DX009 (ip), vehicle: other) was 118 % of control and the T/C [10] was 152 % of control. The T/C (dose: 150.0 mg/kg/injection, schedule: Q01DX009 (ip), vehicle: saline) was 88 % of control, the T/C (dose: 180.0 mg/kg/injection, schedule: Q01DX009 (ip), vehicle: other) was 115 % of control and the T/C (dose: 180.0 mg/kg/injection, schedule: Q01DX Z (ip), vehicle: methylcellulose (MC)) was 115 % of control. The T/C (dose: 180.0 mg/kg/injection, schedule: Q01DX Z (ip), vehicle: saline) was 179 % of control, the T/C (dose: 198.0 mg/kg/injection, schedule: Q04DX003 (ip), vehicle: other) was 115 % of control and the T/C (dose: 200.0 mg/kg/injection, schedule: Q01DX001 (ip), vehicle: alcohol) was 92 % of control. The T/C (dose: 200.0 mg/kg/injection, schedule: Q04DX003 (ip), vehicle: other) was 105 % of control, the T/C (dose: 263.0 mg/kg/injection, schedule: Q01DX Z (ip), vehicle: methylcellulose (MC)) was 96 % of control and the T/C (dose: 270.0 mg/kg/injection, schedule: Q01DX Z (ip), vehicle: saline) was 114 % of control.

O=C1NN(c2ccccc2)CCO1 was tested, and the T/C [8] was 100 % of control and the T/C [9] was 93 % of control.

In the case of CCCCCCCSc1nsc(SCCCCCCC)c1C#N, the T/C [8] is reported as 104 % of control, the T/C [9] is reported as 114 % of control and the T/C (dose: 400.0 mg/kg/injection, schedule: Q01DX009 (ip), vehicle: Klucel (hydroxypropylcellulose) (HPC)) is reported as 101 % of control.

In the case of O=c1cc(-c2ccccc2)nc2c(Cl)cc(Cl)cn12, the T/C (dose: 100.0 mg/kg/injection, schedule: Q04DX003 (ip), vehicle: acetone) is reported as 95 % of control, the T/C (dose: 200.0 mg/kg/injection, schedule: Q04DX003 (ip), vehicle: acetone) is reported as 104 % of control and the T/C (dose: 400.0 mg/kg/injection, schedule: Q04DX003 (ip), vehicle: acetone) is reported as 96 % of control.

In the case of COc1cc(OC)c(NC(=O)NC(C)C)cc1Cl, the T/C (dose: 100.0 mg/kg/injection, schedule: Q04DX003 (ip), vehicle: saline with Tween-80) is reported as 98 % of control, the T/C (dose: 200.0 mg/kg/injection, schedule: Q04DX003 (ip), vehicle: saline with Tween-80) is reported as 89 % of control and the T/C (dose: 400.0 mg/kg/injection, schedule: Q04DX003 (ip), vehicle: saline with Tween-80) is reported as 88 % of control.

O=CC1(c2ccccc2)SCCCS1 was tested, and the T/C [13] was 106 % of control, the T/C [14] was 97 % of control and the T/C [15] was 100 % of control.
